The target in one data set is T1, CCK-2R (Rattus norvegicus, UniProt P30553).
T1 construct: CCK-2R expressing rat pancreatic cancer cells AR42J (CLS GmbH, Eppelheim,; host or cells: AR42J rat pancreatic cancer cells
T1 sequence (P30553 1-452): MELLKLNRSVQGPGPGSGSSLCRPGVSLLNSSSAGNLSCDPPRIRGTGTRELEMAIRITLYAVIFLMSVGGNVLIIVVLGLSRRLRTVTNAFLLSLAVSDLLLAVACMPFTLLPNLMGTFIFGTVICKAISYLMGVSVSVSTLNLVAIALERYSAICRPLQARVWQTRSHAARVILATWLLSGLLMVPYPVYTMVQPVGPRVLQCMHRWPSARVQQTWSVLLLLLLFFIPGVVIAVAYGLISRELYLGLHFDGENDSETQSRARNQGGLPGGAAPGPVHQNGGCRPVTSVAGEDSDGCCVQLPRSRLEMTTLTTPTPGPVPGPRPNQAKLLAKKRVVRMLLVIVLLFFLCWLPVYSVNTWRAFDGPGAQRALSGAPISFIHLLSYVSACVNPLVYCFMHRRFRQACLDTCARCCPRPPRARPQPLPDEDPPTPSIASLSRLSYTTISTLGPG
Kind of data set: CCK-2R-mediated internalisation and total cell uptake on AR42J cells. Type of data set: cell-based. The settings on record: for Total cell uptake (%) / Internalisation Values (%): % of applied activity, AR42J cells, 37 °C, 0.25 pmol/well; for Internalisation Values (%): corrected for non-specific binding; for Internalisation Values (% of reference): % of the reference [177Lu]Lu-DOTA-PP-F11N. As to the method: Figure 3 (a) CCK-2R-mediated internalisation ([…]) on AR42J cells as percent (%) of the applied activity (incubation at 37 °C for 1, 2, 4 and 6 h, RPMI 1640, 5 mM L-Gln, 5 mL non-essential amino acids (100×), 10% FCS + 5% BSA (v/v), 3.0 × 10^5 cells/mL/well). (b) CCK-2R mediated internalisation (% of the reference [^177Lu]Lu-DOTA-PP-F11N) of [^177Lu]Lu-CP04 (grey), [^177Lu]Lu-(R)-DOTAGA-rhCCK-9 (red) and [^177Lu]Lu-(R)-DOTAGA-rhCCK-16 (green) after incubation for 6 h.
Internalisation studies of the ^177Lu-labelled conjugates (0.3 pmol) were performed on AR42J cells (3.0 × 10^5 cells per 1 mL/well) at 37 °C for 1, 2, 4 and 6 h (n = 3). Data were corrected for non-specific binding (competition by 10^−4 M [^natLu]Lu-DOTA-PP-F11N).
Cell Culture. CCK-2R expressing rat pancreatic cancer cells AR42J (CLS GmbH, Eppelheim, Germany) were cultivated in monolayers in CELLSTAR ® cell culture flasks acquired from Greiner Bio-One GmbH (Frickenhausen, Germany) at 37 °C in a humidified atmosphere (5% CO2) using a HERAcell 150i-Incubator (Thermo Fisher Scientific Inc., Waltham, United States). As nutrient medium RPMI 1640 medium, supplemented with 5 mM L-Gln 5 mL non-essential amino acids (100×) and 10% FCS, was used. Furthermore, a Dulbecco’s PBS solution with 0.1% EDTA (v/v) was applied to detach the cells for cell passaging. The detached cells were counted using a Neubauer hemocytometer ( Paul Marienfeld, Lauda-Königshofen, Germany). In addition, all operations under sterile conditions were accomplished using a MSC-Advantage safety workbench (Thermo Fisher Scientific Inc., Waltham, United States). […]
Internalisation Studies. For the determination of the internalisation kinetics of the various peptides, AR42J cells (3.0 × 10^5 cells/well) were seeded into polylysine coated 24-well plates adding 1 mL of nutrient medium. Afterwards, the cells were incubated for 24 ± 2 h at 37 °C in a humidified atmosphere […]
On the day of the experiment, the medium was removed, and each well was washed with nutrient medium (300 µL). Afterwards 200 µL of nutrient medium, 25 µL of the 177Lu-labeled peptide (0.3 pmol, n = 6) and either 25 µL of nutrient medium for internali sation studies (n = 3) or 25 µL of [natLu]Lu-DOTA-PP-F11N ([…]) for competition studies (n = 3) were added. Thereafter, the assay was incubated for various time points (1, 2, 4and 6 h) at 37 °C in a humidified atmosphere (5% CO2). After incubation, the cells were put on ice for at least 1 min to stop internalisation kinetics and the supernatant was collected. Then, the cells were washed with an ice-cold nutrient medium (300 µL) and both fractions were unified. For the acid wash, 300 µL of an ice-cold glycine buffer ([…] lysis of the cells with NaOH (300 μL, 1 N) for 15 min, the respective wells were washed with NaOH (300 μL, 1 N) and both fractions were unified. The radioactivity of the supernatant, the acid wash and the lysed fractions were quantified using a γ-counter.

A short description of data set [1]: Lipophilicity, n-octanol/PBS (pH 7.4) distribution coefficient. Type of data set: physicochemical. In a few lines:
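logD7.4 measured by shake-flask with ^177Lu-labelled peptide (approx. 1 MBq) in 1/1 n-octanol/PBS pH 7.4, vortexed 3 min at RT and centrifuged 5 min. Both phases counted by γ-counter; at least five repeats.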

Setting [2] is: 177Lu-labelled peptide, n-octanol/PBS pH 7.4, read-out: logD7.4.

Like-named read-outs stand apart in the source and are kept apart here. Non-standard residues stand in square brackets, D forms with d. Residues, ends and D or L forms follow the SMILES beside them. *: point of attachment. X1 = O=C(O)CN1CCN(CC(=O)O)CCN([C@H](CCC(=O)*)C(=O)O)CCN(CC(=O)O)CC1; Benzoyl(4-SiFtBu2) = CC(C)(C)[Si](F)(c1ccc(C(=O)*)cc1)C(C)(C)C; Nle = CCCC[C@H](N)C(=O)O; dDap = NC[C@@H](N)C(=O)O

As for `CCCC[C@H](NC(=O)[C@H](Cc1c[nH]c2ccccc12)NC(=O)CNC(=O)[C@H](Cc1ccc(O)cc1)NC(=O)[C@H](C)NC(=O)[C@@H](CCC(=O)O)NC(=O)[C@@H](CCC(=O)O)NC(=O)[C@@H](CCC(=O)O)NC(=O)[C@@H](CCC(=O)O)NC(=O)[C@@H](CCC(=O)O)NC(=O)[C@@H](CCC(=O)O)NC(=O)[C@@H](CCC(=O)O)NC(=O)[C@@H](CCC(=O)O)NC(=O)[C@@H](CNC(=O)c1ccc([Si](F)(C(C)(C)C)C(C)(C)C)cc1)NC(=O)CC[C@H](C(=O)O)N1CCN(CC(=O)O)CCN(CC(=O)O)CCN(CC(=O)O)CC1)C(=O)N[C@@H](CC(=O)O)C(=O)N[C@@H](Cc1ccccc1)C(N)=O` [[nat/177Lu]Lu-(R)-DOTAGA-rhCCK-9, metal not drawn] (X1-[dDap](Benzoyl(4-SiFtBu2))[dE][dE][dE][dE][dE][dE][dE][dE]AYGW[Nle]DF-NH2), the “Total cell uptake (%)” value on CCK-2R (1 h) was determined as 2.25 ± 0.23%; at CCK-2R (2 h) it was 3.46 ± 0.56%; at CCK-2R (4 h), 8.31 ± 0.59%; at CCK-2R (6 h), 13.4 ± 0.7%. Further, the “Internalisation Values (%)” value turned out to be 2.08 ± 0.12% at CCK-2R (1 h), 3.44 ± 0.55% at CCK-2R (2 h), 8.01 ± 0.53% on CCK-2R (4 h) and 13.2 ± 0.5% on CCK-2R (6 h). In addition, at CCK-2R (6 h), the “Internalisation Values (% of reference)” value was 65.7 ± 2.5 % of reference. Besides, in data set [1] (setting [2]), the logD was -2.84 ± 0.04.

For the compound `CSCC[C@H](NC(=O)[C@H](Cc1c[nH]c2ccccc12)NC(=O)CNC(=O)[C@H](Cc1ccc(O)cc1)NC(=O)[C@H](C)NC(=O)[C@@H](CCC(=O)O)NC(=O)[C@@H](CCC(=O)O)NC(=O)[C@@H](CCC(=O)O)NC(=O)[C@@H](CCC(=O)O)NC(=O)[C@@H](CCC(=O)O)NC(=O)[C@@H](CCC(=O)O)NC(=O)CN1CCN(CC(=O)O)CCN(CC(=O)O)CCN(CC(=O)O)CC1)C(=O)N[C@@H](CC(=O)O)C(=O)N[C@@H](Cc1ccccc1)C(N)=O` [[nat/177Lu]Lu-CP04, metal not drawn, reference compound], the “Total cell uptake (%)” value at CCK-2R (1 h) is 6.00 ± 0.42%; at CCK-2R (2 h), 10.0 ± 0.4%; at CCK-2R (4 h), 16.5 ± 0.9%. Also, the “Internalisation Values (%)” value at CCK-2R (1 h) is given as 5.16 ± 0.44%; at CCK-2R (2 h), 9.33 ± 0.36%; on CCK-2R (4 h), 15.4 ± 0.7%; at CCK-2R (6 h), 20.5 ± 0.5%. Also, the “Internalisation Values (% of reference)” value at CCK-2R (6 h) was 91.6 ± 2.4 % of reference. In data set [1] (pH 7.4), this compound had a logD of -3.8 ± 0.1.

Take `CCCC[C@H](NC(=O)[C@H](Cc1c[nH]c2ccccc12)NC(=O)CNC(=O)[C@H](Cc1ccc(O)cc1)NC(=O)[C@H](C)NC(=O)CC[C@@H](NC(=O)CC[C@@H](NC(=O)CC[C@@H](NC(=O)CC[C@@H](NC(=O)CC[C@@H](NC(=O)CC[C@@H](NC(=O)[C@@H](CNC(=O)c1ccc([Si](F)(C(C)(C)C)C(C)(C)C)cc1)NC(=O)CC[C@H](C(=O)O)N1CCN(CC(=O)O)CCN(CC(=O)O)CCN(CC(=O)O)CC1)C(=O)O)C(=O)O)C(=O)O)C(=O)O)C(=O)O)C(=O)O)C(=O)N[C@@H](CC(=O)O)C(=O)N[C@@H](Cc1ccccc1)C(N)=O` [[nat/177Lu]Lu-(R)-DOTAGA-rhCCK-16, metal not drawn]: the “Total cell uptake (%)” value on CCK-2R (1 h) is 8.37 ± 0.07%; at CCK-2R (2 h), 14.4 ± 1.3%; at CCK-2R (4 h), 23.6 ± 2.8%; at CCK-2R (6 h), 32.8 ± 2.3%. The “Internalisation Values (%)” value at CCK-2R (1 h) is 7.63 ± 0.13%; on CCK-2R (2 h) it was 14.0 ± 1.3%; on CCK-2R (4 h), 23.2 ± 2.7%; at CCK-2R (6 h), 32.2 ± 2.1%. In addition, the “Internalisation Values (% of reference)” value on CCK-2R (6 h) is 135 ± 9 % of reference. For the same compound, in data set [1] (setting [2]), the logD is -2.54 ± 0.05.

As for `CCCC[C@H](NC(=O)[C@H](Cc1c[nH]c2ccccc12)NC(=O)CNC(=O)[C@H](Cc1ccc(O)cc1)NC(=O)[C@H](C)NC(=O)[C@@H](CCC(=O)O)NC(=O)[C@@H](CCC(=O)O)NC(=O)[C@@H](CCC(=O)O)NC(=O)[C@@H](CCC(=O)O)NC(=O)[C@@H](CCC(=O)O)NC(=O)[C@@H](CCC(=O)O)NC(=O)CN1CCN(CC(=O)O)CCN(CC(=O)O)CCN(CC(=O)O)CC1)C(=O)N[C@@H](CC(=O)O)C(=O)N[C@@H](Cc1ccccc1)C(N)=O` [[nat/177Lu]Lu-DOTA-PP-F11N, metal not drawn, reference compound], the “Total cell uptake (%)” value on CCK-2R (1 h) worked out at 7.03 ± 1.45%; at CCK-2R (2 h), 10.6 ± 1.5%; at CCK-2R (4 h) it was 18.5 ± 2.5%; on CCK-2R (6 h) it was 23.5 ± 1.4%. Moreover, the “Internalisation Values (%)” value on CCK-2R (1 h) is listed as 6.44 ± 0.32%; on CCK-2R (2 h), 10.1 ± 0.4%; on CCK-2R (4 h), 17.5 ± 1.0%; at CCK-2R (6 h), 22.4 ± 0.6%. Moreover, in data set [1] (setting [2]), the logD is -4.75 ± 0.07.

Values taken from PMC9783573, “Introduction of a SiFA Moiety into the D-Glutamate Chain of DOTA-PP-F11N Results in Radiohybrid-Based CCK-2R-Targeted Compounds with Improved Pharmacokinetics In Vivo” (Pharmaceuticals, 2022).
